In PMC10993450, “New benzimidazole derivative compounds with in vitro fasciolicidal properties” (Parasites & Vectors, 2024):

Experiments:
[1] = tested on: Fasciola hepatica eggs (ABZ-susceptible isolate); assay: Egg hatch test (EHT), ABZ-susceptible isolates; format: cell-based; conditions: mean ± SEM; for % Ovicidal activity: ABZ-susceptible isolate
Protocol: Eggs were recovered from gallbladders of cattle naturally infected with F. hepatica at the municipal slaughterhouse of León (Spain). For this, the bile of the gallbladders was filtered through sieves of different diameter size pores (500, 150, and 20 µm) using pressurized tap water. Eggs retained on the 20 µm pore size sieve were collected and stored at 4 °C in darkness until required within a maximum period of 2 months.
The susceptibility of the isolates to ABZ was confirmed by the egg hatch test (EHT) using an ABZ discriminant dose (DD) of 0.5 µM [23]. The technique is described in more detail below.
The in vitro anthelmintic activity of a total of 70 BZDs was initially tested on F. hepatica eggs recovered from gallbladders of cattle naturally infected with ABZ-susceptible isolates. The first screening was performed using a fixed concentration of 50 µM. […] Therefore, only BZDs with ovicidal activities over 80% progressed to the next assays at 10 µM. […] At this last concentration, the ovicidal effect of ABZ, ABZSO, and OXF was also evaluated.
The in vitro EHT described in the current study was based on previous studies. Briefly, 100–120 eggs were incubated in 990 µL of water and 10 μL of each working solution at 25 °C in the dark for a period of 12 h. After incubation, eggs were gently washed with tap water three times to facilitate compound removal and kept in darkness at 25 °C for 14 days. After this period, eggs were exposed to light for 2 h to stimulate the hatching of eggs. Then, hatched and unhatched eggs were evaluated and counted using an optical microscope. The term “hatched eggs” includes both hatched and embryonated eggs. Negative control eggs were incubated with 10 μL of DMSO in 990 μL of water, reaching a maximum DMSO concentration of 1% (v/v), while ABZ at 0.5 µM was used as positive control. Each compound at a specific concentration was tested in triplicate in the same EHT and repeated at least two different days.
With the aim to characterize the susceptibility of isolates from naturally infected cattle, the drug used in the EHT was ABZ, tested at a discriminant dose of 0.5 μM. Drug susceptibility is assumed when the ovicidal activity is over 70%, resistance when is lower than 40%, and a suspicion of resistance when activity is between these values at 0.5 μM.
The efficacy of each compound and drug was calculated as its ovicidal activity following the formula below: Ovicidal activity%=100×%eggs hatched in negative control-%egg hatched after drug incubation/%egg hatched in control.

[2] = tested on: murine intestinal organoids; assay: Intestinal tolerability assay on murine intestinal organoids; format: cell-based, mouse
Protocol: (§1) The murine intestinal organoid cultures were prepared following Stemcell Technologies™ protocols (https://www.stemcell.com/intestinal-epithelial-organoid-culture-with-intesticult-organoid-growth-medium-mouse-lp.html#protocols). Small intestine sections from C57BL/6 mice were excised, washed with ice-cold PBS, minced, and 2 mm segments were washed extensively. The segments were treated with Gentle Cell Dissociation Reagent (Stemcell Technologies™, Canada), resuspended in ice-cold PBS with 0.1% BSA and filtered. This process was repeated four times, resulting in four fractions. Cells from each fraction were centrifuged, washed, and resuspended in ice-cold DMEM/F12 supplemented with glutamine and HEPES 15 mM. Each fraction was mixed with Geltrex GFR LDEV-free (Gibco, Thermo Fisher Scientific, USA) and IntestiCult™ Organoid Grow Medium Mouse (Stemcell Technologies™, Canada), added to a 24-well plate and incubated at 37 °C for 10 min for matrix polymerization. The organoids were cultured in IntestiCult™ Organoid Grow Medium Mouse, with medium changes every 2 days and splitting after 7 days.
(§2) For intestinal tolerability assays, selected hit compounds were tested in mouse intestinal organoids at 25 and 50 µM final concentrations. The protocol, based on a previous work, involved the addition of Gentle Cell Dissociation Reagent (Stemcell Technologies™, Canada) on matrix domes, the disruption of the matrix, and the incubation the suspension. After centrifugation, cells were resuspended in DMEM/F12 supplemented with glutamine and HEPES 15 mM and centrifugated again. The pellet was resuspended in a mix of Geltrex GFR LDEV-free and IntestiCult™ Organoid Grow Medium Mouse. The mix was plated in 384-well plates, and after 4 days, mature organoids were exposed to the compounds. The positive control was hydrogen peroxide (0.15% v/v), and the negative control was DMSO (0.2%). Viability after 72 h was assessed using the alamarBlue assay.

HepG2 cells = assay: Cytotoxicity assay, alamarBlue; format: cell-based, human
Protocol: (§3) The effect of the BZDs on cell viability was assessed on a human hepatocarcinoma HepG2 (ATCC® HB-8065™, USA) cell line. Only compounds screened at a concentration of 10 µM were evaluated. The detailed protocol is described in a previous study carried out by our research group. Briefly, 10,000 cells were seeded on 96-well plates and incubated with different concentrations of the compounds ranging from 1 to 100 µM at 37 °C and 5% CO2. After 72 h of exposure, viability of the cells was assessed using the alamarBlue (Fisher Scientific®, Spain) staining method according to the manufacturer’s recommendations.
(§4) The data are represented as mean ± standard error of media (SEM).

[3] = tested on: Teladorsagia circumcincta eggs; conditions: type II BZDs; read-out: IC50 against T. circumcincta eggs; cited from earlier work
Haemonchus contortus = conditions: sheep infected with Haemonchus contortus, 120 mg/kg; cited from earlier work
Fasciola hepatica eggs = tested on: Fasciola hepatica eggs; design: method as in PMID 19560276; conditions: other studies; cited from earlier work
[4] = Cytotoxicity assay, alamarBlue; format: cell-based, human; conditions: human, HepG2 cells; 72 h exposure, alamarBlue; read-out: CC50 Hep-G2
Protocol: as §3, §4

[5] = Intestinal tolerability assay on murine intestinal organoids; format: cell-based, mouse; conditions: C57BL/6, mouse, murine small-intestinal organoids, 72 h
Protocol: as §1, §2

Structure (SMILES)	% Ovicidal activity ([1]; 10 µM)	% Ovicidal activity ([1]; 50 µM)	% Viability in organoids ([2]; 25 µM) [%]	CC50 (HepG2 cells) [µM]	other results
Clc1ccc2[nH]c(NCc3ccccc3)nc2c1 [BZD32]	09.11 ± 03.40%	92.62 ± 1.96%	48.10	–	% Ovicidal activity ([1]; 50 µM, listed as BZD-32): higher than 80%; % Viability in organoids ([2]; 50 µM): 52.10%
COc1ccc2[nH]c(NCc3ccc(N4CCCC4)cc3)nc2c1 [BZD38]	03.23 ± 00.84%	higher than 80%	81.10	> 100	% Viability in organoids ([2]; 50 µM): 38.00%
Cc1ccc2[nH]c(NC(=O)c3ccccn3)nc2c1 [BZD55]	07.11 ± 03.01%	89.71 ± 3.87%	98.60	> 100	% Ovicidal activity ([1]; 50 µM, listed as BZD-55): higher than 80%; IC50 [3]: ~1 µM
O=C(Nc1nc2cc(Cl)ccc2[nH]1)c1ccccn1 [BZD58]	around 50%	higher than 80%	100	> 5	in vivo efficacy (Haemonchus contortus): 95%
COc1ccc2[nH]c(NC(=O)c3ccccn3)nc2c1 [BZD61]	–	93.17 ± 3.31%	–	–	% Ovicidal activity ([1]; 50 µM, listed as BZD-61): higher than 80%; IC50 [3]: < 1 µM
Nc1cc(C(Cl)=C(Cl)Cl)c(S(N)(=O)=O)cc1S(N)(=O)=O [CLR, clorsulon]	–	–	–	–	Effect on in vitro egg hatching (Fasciola hepatica eggs): did not affect in vitro egg hatching
CSc1nc2cc(Cl)c(Oc3cccc(Cl)c3Cl)cc2[nH]1 [TCBZ, triclabendazole, reference compound]	–	–	–	–	killing at 5 µM ([1]; Fasciola hepatica, 5 µM, read-out: % Ovicidal activity susceptible isolate): ≤ 2%; CC50 at 72 h [4]: > 50 µM; viability at 72 h, 25 µM ([5]; 25 µM): ~82%; viability at 72 h, 50 µM ([5]; 50 µM): ~1.5%; Effect on in vitro egg hatching (Fasciola hepatica eggs): did not affect in vitro egg hatching
